For one test, the target named is PRC2 containing wt EZH2 (Homo sapiens (Human), UniProt Q15910). Nature of the test: EZH2 biochemical assay (IC50), 3H-SAM incorporation into biotinylated H3 peptide. The method in brief: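 The PRC2 pentamer with wt EZH2 (30 pM) was pre-incubated for 3-5 h with 450 nM SAM plus 450 nM ³H-SAM, 2 µM H3K27me3 activating peptide and compound (0.8% DMSO) in Tris at pH 8.5. Biotinylated H3K27me1 peptide was added and the reaction ran 18-22 h at RT. Incorporated ³H was captured on streptavidin plates, and IC50 was taken from a four-parameter fit.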

Test [1] has as its system H3K27me3 mark in HeLa cells (EZH2). Nature of the test: H3K27me3 Alpha Hela Assay (AlphaLISA). The class given is cell-based. To be noted: HeLa cells, 72 hrs, read-out: EZH2 Cell H3K27me3 Alpha HeLa (EC50 K27me3). The method in brief: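 HeLa cells (1,000/well) treated with ten 3-fold compound doses for 72 h at 37 °C; lysates extracted and H3K27me3 detected by AlphaLISA with anti-K27me3 acceptor beads, biotinylated anti-H3 (3 nM) and streptavidin donor beads. EC50 from DMSO-normalized dose-response curves; duplicate plate assessed viability.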

[2] abbreviates: 30 pM PRC2 containing wt EZH2; 3-5 h pre-incubation; read-out: EZH2 (IC50).
Where [3] appears, read: read-out: EZH2 (IC50); 30 pM PRC2 containing wt EZH2; 3-5 h pre-incubation.
[4] abbreviates: EZH2 (IC50), 30 pM PRC2 containing wt EZH2; 3-5 h pre-incubation.

Molecules are shown by their SMILES. Read-outs that look alike come from different tables or passages of the source.

Sequence of PRC2 containing wt EZH2 (Q15910 whole entry): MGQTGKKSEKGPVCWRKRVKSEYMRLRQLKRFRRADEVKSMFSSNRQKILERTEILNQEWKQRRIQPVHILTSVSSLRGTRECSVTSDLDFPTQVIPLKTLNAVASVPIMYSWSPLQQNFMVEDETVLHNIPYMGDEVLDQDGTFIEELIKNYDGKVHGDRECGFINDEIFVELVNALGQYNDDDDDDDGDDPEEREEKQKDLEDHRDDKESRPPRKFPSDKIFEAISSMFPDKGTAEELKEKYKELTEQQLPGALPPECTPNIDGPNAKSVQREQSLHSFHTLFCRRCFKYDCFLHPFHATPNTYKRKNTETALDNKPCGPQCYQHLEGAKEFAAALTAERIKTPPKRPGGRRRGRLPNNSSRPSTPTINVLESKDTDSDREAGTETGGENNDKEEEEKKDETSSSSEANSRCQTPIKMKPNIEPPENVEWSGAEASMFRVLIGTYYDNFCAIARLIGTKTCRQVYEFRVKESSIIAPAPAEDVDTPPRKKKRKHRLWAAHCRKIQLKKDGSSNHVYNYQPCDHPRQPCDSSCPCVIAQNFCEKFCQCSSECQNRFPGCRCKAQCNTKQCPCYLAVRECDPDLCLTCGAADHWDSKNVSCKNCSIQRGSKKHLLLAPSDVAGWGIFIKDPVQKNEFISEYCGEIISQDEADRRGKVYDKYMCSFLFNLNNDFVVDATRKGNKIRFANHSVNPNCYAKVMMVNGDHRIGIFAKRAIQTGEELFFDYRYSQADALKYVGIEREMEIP
Sequence of PRC2 containing wt EZH2 (O75530 whole entry partner): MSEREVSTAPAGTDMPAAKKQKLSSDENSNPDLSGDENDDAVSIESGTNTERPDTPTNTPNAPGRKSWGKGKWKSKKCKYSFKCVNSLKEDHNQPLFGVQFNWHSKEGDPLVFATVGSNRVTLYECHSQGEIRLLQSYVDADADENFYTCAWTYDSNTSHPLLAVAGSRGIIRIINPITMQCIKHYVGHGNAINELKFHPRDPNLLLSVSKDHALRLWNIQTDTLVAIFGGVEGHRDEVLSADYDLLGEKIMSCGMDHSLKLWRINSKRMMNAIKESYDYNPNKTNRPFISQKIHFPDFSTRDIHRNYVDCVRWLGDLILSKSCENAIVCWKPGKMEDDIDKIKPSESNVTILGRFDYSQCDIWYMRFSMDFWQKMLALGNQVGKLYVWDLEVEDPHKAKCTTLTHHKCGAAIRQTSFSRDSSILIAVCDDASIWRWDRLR
Sequence of PRC2 containing wt EZH2 (Q15022 whole entry partner): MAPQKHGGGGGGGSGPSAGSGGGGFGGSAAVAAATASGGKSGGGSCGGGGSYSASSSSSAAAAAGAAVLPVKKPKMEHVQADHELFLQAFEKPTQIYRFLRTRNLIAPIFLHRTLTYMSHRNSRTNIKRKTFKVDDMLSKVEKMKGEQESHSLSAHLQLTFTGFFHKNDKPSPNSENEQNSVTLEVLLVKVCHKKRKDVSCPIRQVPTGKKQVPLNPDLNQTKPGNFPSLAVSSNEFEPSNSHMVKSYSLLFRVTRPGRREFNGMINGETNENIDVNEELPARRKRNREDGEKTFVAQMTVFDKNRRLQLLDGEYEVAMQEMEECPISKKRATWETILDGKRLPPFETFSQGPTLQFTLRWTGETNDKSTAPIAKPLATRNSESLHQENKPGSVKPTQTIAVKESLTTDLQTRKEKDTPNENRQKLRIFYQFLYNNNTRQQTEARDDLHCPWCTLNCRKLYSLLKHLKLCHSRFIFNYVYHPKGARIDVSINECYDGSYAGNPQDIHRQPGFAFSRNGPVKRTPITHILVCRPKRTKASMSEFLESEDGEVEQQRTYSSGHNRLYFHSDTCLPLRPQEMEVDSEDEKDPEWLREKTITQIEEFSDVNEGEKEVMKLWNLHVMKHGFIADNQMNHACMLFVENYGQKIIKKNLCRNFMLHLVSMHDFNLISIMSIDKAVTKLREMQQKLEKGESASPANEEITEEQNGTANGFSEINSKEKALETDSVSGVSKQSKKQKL
Sequence of PRC2 containing wt EZH2 (Q09028 whole entry partner): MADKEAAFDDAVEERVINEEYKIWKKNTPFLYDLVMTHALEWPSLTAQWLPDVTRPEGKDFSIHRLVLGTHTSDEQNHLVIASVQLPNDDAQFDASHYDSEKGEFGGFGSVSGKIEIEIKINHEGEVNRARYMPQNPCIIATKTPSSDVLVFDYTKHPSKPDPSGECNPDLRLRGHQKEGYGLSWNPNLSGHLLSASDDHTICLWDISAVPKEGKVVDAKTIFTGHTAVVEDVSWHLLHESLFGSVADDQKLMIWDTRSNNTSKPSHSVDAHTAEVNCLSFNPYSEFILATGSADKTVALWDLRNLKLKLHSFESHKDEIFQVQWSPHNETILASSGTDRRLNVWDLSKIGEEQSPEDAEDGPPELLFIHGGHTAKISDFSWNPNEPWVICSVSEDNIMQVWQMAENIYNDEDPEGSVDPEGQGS
Sequence of PRC2 containing wt EZH2 (Q6ZN18 whole entry partner): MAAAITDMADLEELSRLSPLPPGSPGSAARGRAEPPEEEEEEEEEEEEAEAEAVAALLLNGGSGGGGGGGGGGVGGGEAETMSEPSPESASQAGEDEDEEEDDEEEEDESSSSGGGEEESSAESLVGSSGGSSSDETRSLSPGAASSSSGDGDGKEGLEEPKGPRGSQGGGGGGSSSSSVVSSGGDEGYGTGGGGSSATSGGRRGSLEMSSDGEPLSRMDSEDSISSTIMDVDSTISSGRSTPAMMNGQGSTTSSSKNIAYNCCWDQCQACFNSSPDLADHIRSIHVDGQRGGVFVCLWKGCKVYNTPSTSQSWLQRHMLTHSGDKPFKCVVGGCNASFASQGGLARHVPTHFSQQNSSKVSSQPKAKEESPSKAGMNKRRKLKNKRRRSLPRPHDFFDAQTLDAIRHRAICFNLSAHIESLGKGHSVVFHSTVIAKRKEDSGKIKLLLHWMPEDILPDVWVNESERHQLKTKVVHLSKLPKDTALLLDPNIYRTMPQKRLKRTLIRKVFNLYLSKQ

As to `CSc1cc(C)[nH]c(=O)c1CNC(=O)c1c(C)n([C@H](C)C2CCN(CC(F)(F)F)CC2)c2cccc(C(F)F)c12` [Example 114, (R)-4-(difluoromethyl)-2-methyl-N-((6-methyl-4-(methylthio)-2-oxo-1,2-dihydropyridin-3-yl)methyl)-1-(1-(1-(2,2,2-trifluoroethyl)piperidin-4-yl)ethyl)-1H-indole-3-carboxamide], the IC50 at PRC2 containing wt EZH2 (setting [2]) was over 5 nM. Moreover, the EC50 in test [1] (Homo sapiens, HeLa, 72 h) is over 100 nM.

`CSc1cc(C)[nH]c(=O)c1CNC(=O)c1c(C)n([C@H](C)C2CCC(Oc3cnn(C)c3)CC2)c2ncccc12` (single isomer, unassigned) [147 (isomer 1)]: the IC50 at PRC2 containing wt EZH2 (setting [2]) is under 0.5 nM. The EC50 in test [1] (Homo sapiens, HeLa, 72 h) was under 10 nM.

In the case of `COC1CCC([C@@H](C)n2c(C)c(C(=O)NCc3c(SC)cc(C)[nH]c3=O)c3ccccc32)CC1` (single isomer, unassigned) [18 (isomer 2)], the IC50 on PRC2 containing wt EZH2 (setting [3]) is under 0.5 nM. Besides, the EC50 in test [1] is under 10 nM.

Take `CSc1cc(C)[nH]c(=O)c1CNC(=O)c1c(C)n([C@H](C)C2CCC(N3CCC(F)(F)C3)CC2)c2ccccc12` (stereo partly drawn) [Example 95, 1-((R)-1-(4-(3,3-difluoropyrrolidin-1-yl)cyclohexyl)ethyl)-2-methyl-N-((6-methyl-4-(methylthio)-2-oxo-1,2-dihydropyridin-3-yl)methyl)-1H-indole-3-carboxamide]: at PRC2 containing wt EZH2 (setting [2]), the IC50 is under 0.5 nM. For the same molecule, the EC50 in test [1] (Homo sapiens, HeLa, 72 h) is under 10 nM.

Regarding `CC[C@@H](C1CCC(N2CC(OC(F)F)C2)CC1)n1c(C)c(C(=O)NCc2c(SC)cc(C)[nH]c2=O)c2cccnc21` (stereo partly drawn) [Example 117, 1-((S)-1-(4-(3-(difluoromethoxy)azetidin-1-yl)cyclohexyl)propyl)-2-methyl-N-((6-methyl-4-(methylthio)-2-oxo-1,2-dihydropyridin-3-yl)methyl)-1H-pyrrolo[2,3-b]pyridine-3-carboxamide], the IC50 on PRC2 containing wt EZH2 (setting [2]) lay in the range of 0.5 to 5 nM. In addition, the EC50 in test [1] (Homo sapiens, HeLa, 72 h) lay in the range of 10 to 100 nM.

On to `CSc1cc(C)[nH]c(=O)c1CNC(=O)c1c(C)n([C@H](C)C2CCC(N3CC(OC(F)(F)F)C3)CC2)c2ccccc12` (single isomer, unassigned) [21 (isomer 1)], for which, at PRC2 containing wt EZH2 (setting [2]), the IC50 was under 0.5 nM. Also, the EC50 in test [1] (Homo sapiens, HeLa, 72 h) is under 10 nM.

At PRC2 containing wt EZH2 (setting [4]), `CSc1cc(C)[nH]c(=O)c1CNC(=O)c1c(C)n([C@H](C)C2CCN(C3COC3)CC2)c2ccccc12` [Example 133, (R)-2-methyl-N-((6-methyl-4-(methylthio)-2-oxo-1,2-dihydropyridin-3-yl)methyl)-1-(1-(1-(oxetan-3-yl)piperidin-4-yl)ethyl)-1H-indole-3-carboxamide] had an IC50 of under 0.5 nM. The EC50 in test [1] (Homo sapiens, HeLa, 72 h) is under 10 nM.

Regarding `CSc1cc(C)[nH]c(=O)c1CNC(=O)c1c(C)n([C@H](C)C2CCC(NC3(C(F)(F)F)COC3)CC2)c2ncccc12` (single isomer, unassigned) [163 (isomer 2)], the IC50 at PRC2 containing wt EZH2 (setting [2]) was 0.5 to 5 nM. The EC50 in test [1] was 10 to 100 nM.

`CSc1cc(C)[nH]c(=O)c1CNC(=O)c1c(C)n([C@H](C)C2CCN(CC(F)(F)F)CC2)c2ncccc12` [Example 25, (R)-2-methyl-N-((6-methyl-4-(methylthio)-2-oxo-1,2-dihydropyridin-3-yl)methyl)-1-(1-(1-(2,2,2-trifluoroethyl)piperidin-4-yl)ethyl)-1H-pyrrolo[2,3-b]pyridine-3-carboxamide] yielded an IC50 at PRC2 containing wt EZH2 (setting [4]) of under 0.5 nM. For the same molecule, in test [1] (Homo sapiens, HeLa, 72 h), the EC50 was under 10 nM.

With `CSc1cc(C)[nH]c(=O)c1CNC(=O)c1c(C)n([C@H](C)C2CCC(N3CC(OC(F)F)C3)CC2)c2ncc(C)cc12` (stereo partly drawn) [Example 115, 1-((R)-1-(4-(3-(difluoromethoxy)azetidin-1-yl)cyclohexyl)ethyl)-2,5-dimethyl-N-((6-methyl-4-(methylthio)-2-oxo-1,2-dihydropyridin-3-yl)methyl)-1H-pyrrolo[2,3-b]pyridine-3-carboxamide], the half-inhibitory concentration (IC50) at PRC2 containing wt EZH2 (setting [2]) was under 0.5 nM. Further, the EC50 in test [1] (Homo sapiens, HeLa, 72 h) is under 10 nM.

Consider `CSc1cc(C)[nH]c(=O)c1CNC(=O)c1c(C)n([C@H](C)C2OCC(N3CC(C)(C)C3)CO2)c2ccccc12` (single isomer, unassigned) [78 (isomer 1)], for which, on PRC2 containing wt EZH2 (setting [4]), the IC50 was under 0.5 nM. In addition, the EC50 in test [1] fell in the range of 10 to 100 nM.

Turning to `CSc1cc(C)[nH]c(=O)c1CNC(=O)c1c(C)n([C@H](C)C2CCN(CCC(F)(F)F)CC2)c2ccccc12` [Example 88, (R)-2-methyl-N-((6-methyl-4-(methylthio)-2-oxo-1,2-dihydropyridin-3-yl)methyl)-1-(1-(1-(3,3,3-trifluoropropyl)piperidin-4-yl)ethyl)-1H-indole-3-carboxamide], the IC50 against PRC2 containing wt EZH2 (setting [4]) was under 0.5 nM. Besides, the EC50 in test [1] (Homo sapiens, HeLa, 72 h) was in the range of 10 to 100 nM.

As to `COC1CCC([C@@H](C)n2c(C)c(C(=O)NCc3c(SC)cc(C)[nH]c3=O)c3cncnc32)CC1` (single isomer, unassigned) [41 (isomer 2)], the 50% inhibitory concentration (IC50) at PRC2 containing wt EZH2 (setting [3]) is under 0.5 nM. The half-maximal effective concentration (EC50) in test [1] is under 10 nM.

In turn, `CSc1cc(C)[nH]c(=O)c1CNC(=O)c1c(C)n([C@H](C)C2CCN(C3CC(F)(F)C3)CC2)c2ccccc12` [Example 81, (R)-1-(1-(1-(3,3-difluorocyclobutyl)piperidin-4-yl)ethyl)-2-methyl-N-((6-methyl-4-(methylthio)-2-oxo-1,2-dihydropyridin-3-yl)methyl)-1H-indole-3-carboxamide] gave an IC50 at PRC2 containing wt EZH2 (setting [4]) of under 0.5 nM. For the same molecule, in test [1] (Homo sapiens, HeLa, 72 h), the EC50 fell in the range of 10 to 100 nM.

For `CSc1cc(C)[nH]c(=O)c1CNC(=O)c1c(C)n([C@H](C)C2CCN(C3CC3)CC2)c2cc(F)ccc12` [Example 57, (R)-1-(1-(1-cyclopropylpiperidin-4-yl)ethyl)-6-fluoro-2-methyl-N-((6-methyl-4-(methylthio)-2-oxo-1,2-dihydropyridin-3-yl)methyl)-1H-indole-3-carboxamide], the IC50 against PRC2 containing wt EZH2 (setting [4]) is under 0.5 nM. In test [1] (Homo sapiens, HeLa, 72 h), the EC50 is under 10 nM.

`CSc1cc(C)[nH]c(=O)c1CNC(=O)c1c(C)n([C@H](C)C2CCN(CC(F)(F)F)CC2)c2cccc(C)c12` [Example 87, (R)-2,4-dimethyl-N-((6-methyl-4-(methylthio)-2-oxo-1,2-dihydropyridin-3-yl)methyl)-1-(1-(1-(2,2,2-trifluoroethyl)piperidin-4-yl)ethyl)-1H-indole-3-carboxamide] registered an IC50 at PRC2 containing wt EZH2 (setting [4]) of 0.5 to 5 nM. In test [1] (Homo sapiens, HeLa, 72 h), the concentration for a half-maximal effect (EC50) was under 10 nM.

At PRC2 containing wt EZH2 (setting [4]), `CSc1cc(C)[nH]c(=O)c1CNC(=O)c1c(C)n([C@H](C)C2CCC(O)CC2)c2ccccc12` (single isomer, unassigned) [19 (isomer 1)] had an IC50 of under 0.5 nM. Further, the EC50 in test [1] (Homo sapiens, HeLa, 72 h) is under 10 nM.

On to `CSc1cc(C)[nH]c(=O)c1CNC(=O)c1c(C)n([C@H](C)C2CCC(N3CCOCC3)CC2)c2ccccc12` (single isomer, unassigned) [75 (isomer 2)], for which the IC50 at PRC2 containing wt EZH2 (setting [3]) is under 0.5 nM. The EC50 in test [1] is 10 to 100 nM.

Consider `CSc1cc(C)[nH]c(=O)c1CNC(=O)c1c(C)n([C@H](C)C2CCC(NC3(CF)COC3)CC2)c2ncncc12` (single isomer, unassigned) [156 (isomer 1)], for which the IC50 on PRC2 containing wt EZH2 (setting [2]) was under 0.5 nM. Also, in test [1] (Homo sapiens, HeLa, 72 h), the EC50 is under 10 nM.

Molecule `CSc1cc(C)[nH]c(=O)c1CNC(=O)c1c(C)n([C@H](C)C2CCN(CCO)CC2)c2ccccc12` [Example 52, (R)-1-(1-(1-(2-hydroxyethyl)piperidin-4-yl)ethyl)-2-methyl-N-((6-methyl-4-(methylthio)-2-oxo-1,2-dihydropyridin-3-yl)methyl)-1H-indole-3-carboxamide] showed an IC50 at PRC2 containing wt EZH2 (setting [4]) of under 0.5 nM. In test [1] (Homo sapiens, HeLa, 72 h), the EC50 is over 100 nM.

On to `CSc1cc(C)[nH]c(=O)c1CNC(=O)c1c(C)n([C@H](C)C2CCC(N3CC(OC(F)F)C3)CC2)c2cc(F)ccc12` (stereo partly drawn) [Example 29, 1-((R)-1-(4-(3-(difluoromethoxy)azetidin-1-yl)cyclohexyl)ethyl)-6-fluoro-2-methyl-N-((6-methyl-4-(methylthio)-2-oxo-1,2-dihydropyridin-3-yl)methyl)-1H-indole-3-carboxamide], for which, on PRC2 containing wt EZH2 (setting [2]), the IC50 is under 0.5 nM. Further, the EC50 in test [1] (Homo sapiens, HeLa, 72 h) was under 10 nM.

`CSc1cc(C)[nH]c(=O)c1CNC(=O)c1c(C)n([C@H](C)C2CCC(N3CC(O)C3)CC2)c2ccccc12` (stereo partly drawn) [Example 136, (R)-1-(1-(4-(3-hydroxyazetidin-1-yl)cyclohexyl)ethyl)-2-methyl-N-((6-methyl-4-(methylthio)-2-oxo-1,2-dihydropyridin-3-yl)methyl)-1H-indole-3-carboxamide]: on PRC2 containing wt EZH2 (setting [4]), the IC50 was under 0.5 nM. Further, in test [1] (Homo sapiens, HeLa, 72 h), the EC50 is over 100 nM.

With `CSc1cc(C)[nH]c(=O)c1CNC(=O)c1c(C)n([C@@H](C)C2COC2)c2ccccc12` (single isomer, unassigned) [14 (isomer 2)], the IC50 against PRC2 containing wt EZH2 (setting [4]) was over 5 nM. In addition, the EC50 in test [1] (Homo sapiens, HeLa, 72 h) is over 100 nM.

Regarding `CSc1cc(C)[nH]c(=O)c1CNC(=O)c1c(C)n([C@H](C)C2CCC(O)CC2)c2ncccc12` (single isomer, unassigned) [36 (isomer 2)], the IC50 on PRC2 containing wt EZH2 (setting [3]) is under 0.5 nM. For the same molecule, in test [1], the EC50 is under 10 nM.

For `CSc1cc(C)[nH]c(=O)c1CNC(=O)c1c(C)n([C@H](C)C2CCC(N3CC(OC4CC4)C3)CC2)c2ncc(Cl)cc12` (stereo partly drawn) [Example 124, 5-chloro-1-((R)-1-(4-(3-cyclopropoxyazetidin-1-yl)cyclohexyl)ethyl)-2-methyl-N-((6-methyl-4-(methylthio)-2-oxo-1,2-dihydropyridin-3-yl)methyl)-1H-pyrrolo[2,3-b]pyridine-3-carboxamide], on PRC2 containing wt EZH2 (setting [2]), the IC50 was under 0.5 nM. In addition, the EC50 in test [1] (Homo sapiens, HeLa, 72 h) was under 10 nM.

Values taken from patent publication US11459315B2, “Modulators of methyl modifying enzymes, compositions and uses thereof” (Constellation Pharmaceuticals, Inc., priority 2017, dated 2022).
